# Measured values published in patent publication US8377455B2, “Biosurfactant composition produced by a new Bacillus licheniforms strain, uses and products thereof” (priority 2008, dated 2013).
# Read-outs that look alike come from different tables or passages of the source.
# Legend:
# [1] = tested on: planktonic E. coli CFT073; experiment: Susceptibility of planktonic cultures to antibiotics with or without V9T14 (MIC by OD650, MBC by viable cell count); assay type: cell-based, Escherichia coli; settings: for change of MBC99.99% by V9T14 / effect of V9T14 on planktonic killing: 5 μg/mL V9T14; for MIC / MBC: Escherichia coli; for MBC: read-out: MBC99.99%, Ab; for concentration at which complete eradication of planktonic cells was observed: antibiotic plus 5 μg/mL V9T14; for MBC99.99%, AbBs: antibiotic plus 5 μg/mL V9T14 biosurfactant; for increase of planktonic killing by V9T14: at 2 μg/mL antibiotic
# Method: (§1) Antibiotics were serially diluted (log2) using 0.9% saline in a 96-well microtiter plate, and then a solution of biosurfactant was added to each well to reach a final concentration of 5 μg/mL.
# (§2) E. coli CFT073 biofilms were grown on the CBD at 37° C. for 24 h in a rotatory shaker at 130 rpm, as described above. Then CBD lid was rinsed twice with 0.9% saline, exposed to the antibiotics and antibiotic plus biosurfactant microtiter plate and incubated at 37° C., 125 rpm for 24 h. After exposure, the CBD was removed and the 96-well microtiter plate was used to estimate minimal inhibitory concentration (MIC) and minimal bactericidal concentration (MBC99.99%) values. For MIC value, the plate was read using a spectrophotometer at 650 nm, MIC was defined as the lowest concentration not presenting turbidity; according to the guidelines of the American Clinical Laboratory Standards Institute, the minimum bactericidal concentration (MBC) is conventionally defined as a concentration of an antimicrobial agent that kills 3 log10 cells of a bacterial culture (or 99.9% of the bacteria). In our experiments we used a more restrictive criterion, defining the MBC99.99% value, defined as the lowest concentration of the antibiotic activity higher than 4 log10 by viable cell count. Minimal biofilm eradication concentration (MBEC99.9%) was defined as the lowest concentration to eradicate 3 log10 of the viable microorganisms in a biofilm.
# (§3) The difference attributed to synergy is expressed in Δ values between the log10 antibiotic cell count reduction and the log10 association value. “Eradication” was defined as no growth in antibiotic-free plates after planktonic culture initially incubated in antibiotic-containing LB broth.
# E. coli CFT073 biofilm = experiment: Susceptibility of 24 h biofilm on CBD to antibiotics with or without V9T14 (MBEC, viable cell count, CLSM); assay type: cell-based, Escherichia coli; settings: for MBEC99.9%, Ab: 3 log10 reduction; for MBEC99.9%, AbBs: antibiotic plus 5 μg/mL V9T14 biosurfactant
# Method: as §1, §2
# Pegs were broken from the lid of the CBD using pliers (Harrison et al. 2006) and then rinsed once with 0.9% saline to remove planktonic forms. Prior to examination by CLSM, biofilms were fluorescently stained with acridine orange (AO) (Sigma Chemical Co., St. Louis, Mo., USA). To stain biofilms, pegs were immersed in 0.1% w/v AO in PBS for 5 min at room temperature in the dark. To determine live and dead cell distribution in antibiotic experiments, rinsed biofilms were stained with Syto-9 (6.7 μM) and propidium iodide (40 μM) (Live/Dead® BacLight™ Kit, Molecular Probes, Burlington, ON, Canada) at 30° C. for 30 min. Fluorescently stained biofilms were placed in two drops of 0.9% saline on the surface of a glass coverslip. These pegs were examined using a Leica DM IRE2 spectral confocal and multiphoton microscope with a Leica TCS SP2 acoustic optical beam splitter (AOBS) (Leica Microsystems, Richmond Hill, ON, Canada). To minimize or eliminate artefacts associated with single and/or simultaneous dual wavelength excitation, all dual labelled samples were sequentially scanned, frame-by frame, first at 476 or 488 nm and then at 543 nm. Fluorescence emission Δ was then sequentially collected in the green and red regions of the spectrum, respectively. Line averaging (×2) was used to capture images with reduced noise. A 63× water immersion objective was used in all imaging experiments. Image capture and two dimensional projections of z-stacks were performed using Leica Confocal Software (LCS, Leica Microsystems).
# as §3
# [2] = 24 h, antibiotic alone, 24 h, OD650, read-out: MIC, Ab
# [3] = antibiotic without V9T14 (figure legend), read-out: MIC value used in FIG. 21
# [4] = antibiotic alone, 24 h, 4 log10 reduction
Structure (SMILES),change of MBC99.99% by V9T14 [1],"MIC [1, 2] [µg/mL]","MIC [1, 3] [µg/mL]","MBC [1, 4] [µg/mL]",concentration at which complete eradication of planktonic cells was observed [1] [µg/mL],"MBC99.99%, AbBs ([1]; 24 h) [µg/mL]",biofilm reduction (E. coli CFT073 biofilm; antibiotic alone at 4 μg/mL) [log10],"MBEC99.9%, Ab (E. coli CFT073 biofilm; antibiotic alone, 24 h) [µg/mL]","MBEC99.9%, AbBs (E. coli CFT073 biofilm; 24 h) [µg/mL]","MIC, Ab ([1]; antibiotic alone, 24 h, OD650) [µg/mL]",planktonic population reduction ([1]; antibiotic alone at 1 μg/mL) [log10],increase of planktonic killing by V9T14 [1] [log10],effect of V9T14 on planktonic killing [1],change of MBEC99.9% by V9T14 (E. coli CFT073 biofilm; 5 μg/mL V9T14),also measured
"CC1(C)S[C@@H]2[C@H](NC(=O)[C@H](N)c3ccccc3)C(=O)N2[C@H]1C(=O)O [Ampicillin, ampicillin]",not modified,2 to 4,2,1 to 2,8,1 to 2,3,4,0.5 to 1,–,–,–,–,–,"surviving planktonic population ([1]; antibiotic alone up to 16 μg/mL): 10^2 cfu/mL; increase of planktonic killing efficacy by V9T14 ([1]; concentration not given): 2 log10; surviving biofilm population (E. coli CFT073 biofilm; 1 μg/mL antibiotic plus V9T14): 10^1 cfu/peg; biofilm subpopulation remaining viable (E. coli CFT073 biofilm; antibiotic alone, 24 h): 10^3 cfu/peg; concentration at which sessile forms were eradicated (E. coli CFT073 biofilm; antibiotic plus V9T14): 8 µg/mL; effect on adherent biofilm cells (E. coli CFT073 biofilm; association of V9T14 with the antibiotic): complete eradication; enhancement of antibiotic effect on biofilm by V9T14 (E. coli CFT073 biofilm; at 1 μg/mL antibiotic): 4 log10"
"Cc1nnc(SCC2=C(C(=O)O)N3C(=O)[C@@H](NC(=O)Cn4cnnn4)[C@H]3SC2)s1 [Cefazolin, cefazolin]",–,–,8,16,32,8,–,–,8,1 to 2,–,–,–,–,"maximum planktonic killing effect ([1]; 32 μg/mL antibiotic plus V9T14): 8.4 log10; MIC ([1]; 24 h, antibiotic plus 5 μg/mL V9T14, 24 h, OD650, read-out: MIC with V9T14): 8 µg/mL; planktonic killing ([1]; antibiotic alone at 16 μg/mL): more than 4 log10 cfu/mL; maximum planktonic killing effect ([1]; antibiotic alone at 32 μg/mL): 6.9 log10; MIC, Ab ([1]; antibiotic alone, 24 h, OD650, listed as cefazolin): 16 µg/mL; biofilm reduction (E. coli CFT073 biofilm; antibiotic alone, up to highest concentration tested): about 2.2 log10"
"CO/N=C(\C(=O)N[C@@H]1C(=O)N2C(C(=O)O)=C(CSc3nc(=O)c(O)nn3C)CS[C@H]12)c1csc(N)n1 [Cefriaxone, ceftriaxone]",not modified,–,–,–,2,0.5 to 1,–,1 to 2,0.5 to 1,1 to 2,7,1.7,–,–,"planktonic population reduction ([1]; antibiotic alone at 0.5 μg/mL): 3 log10; MBC99.99%, Ab [1, 4]: 0.5 to 1 µg/mL; MIC value used in FIG. 21 ([1]; antibiotic without V9T14 (figure legend)): 1 µg/mL; final enhancement of biofilm removal by V9T14 (E. coli CFT073 biofilm; 2 μg/mL antibiotic): 1.2 log10; enhancement of biofilm removal by V9T14 (E. coli CFT073 biofilm; 0.25-0.5 μg/mL antibiotic): 0.6 log10; biofilm reduction (E. coli CFT073 biofilm; antibiotic alone at 1 μg/mL): 3 log10; further increase of biofilm removal by V9T14 (E. coli CFT073 biofilm; for 2 μg/mL antibiotic, on top of the 0.25-0.5 μg/mL increase): 0.6 log10"
"O=C(O)c1cn(C2CC2)c2cc(N3CCNCC3)c(F)cc2c1=O [Ciprofloxacin, ciprofloxacin]",not modified,8 to 16,–,0.25 to 0.5,–,0.25 to 0.5,–,–,–,–,6.8,1.4,–,–,–
"CCN1CCN(C(=O)N[C@@H](C(=O)N[C@@H]2C(=O)N3[C@@H]2SC(C)(C)[C@@H]3C(=O)O)c2ccccc2)C(=O)C1=O [Piperacillin, piperacillin]",not affected,> 32,32,> 32,–,>32,1,>32,>32,–,–,–,no improvement,not affected,planktonic population reduction ([1]; antibiotic alone at 4 μg/mL): 2.7 log10; effect of V9T14 on biofilm killing (E. coli CFT073 biofilm; 5 μg/mL V9T14): no improvement; synergy with V9T14 (criterion ≧1 log10 decrease) (E. coli CFT073 biofilm; 24 h exposure): not able to satisfy our discrimination criterion for synergy identification
"NC[C@H]1O[C@H](O[C@H]2[C@H](O)[C@@H](O[C@H]3O[C@H](CO)[C@@H](O)[C@H](N)[C@H]3O)[C@H](N)C[C@@H]2N)[C@H](N)C[C@@H]1O [Tobramycin, tobramycin]",not modified,16 to 32,16,8 to 16,–,8 to 16,–,2 to 4,2 to 4,–,–,–,no increase of activity,not modified,"planktonic growth, OD650 ([1]; 4 μg/mL antibiotic alone): 0.31; planktonic growth, OD650 ([1]; 4 μg/mL antibiotic plus 5 μg/mL V9T14): 0.18; concentration giving complete eradication of planktonic population ([1]; antibiotic alone): 16 µg/mL; planktonic population reduction ([1]; antibiotic alone up to 8 μg/mL): 1 log10; increased efficacy against sessile forms by V9T14 (E. coli CFT073 biofilm; 16 μg/mL antibiotic): 1 log10; effect on mature biofilm by CLSM (Live/Dead) (E. coli CFT073 biofilm; 16 μg/mL antibiotic alone): significant killing of biofilm population; mature biofilm reduction by CLSM (Live/Dead) (E. coli CFT073 biofilm; 16 μg/mL antibiotic plus 5 μg/mL V9T14): further increased; biofilm survival subpopulation (E. coli CFT073 biofilm; antibiotic alone at 8-16 μg/mL): about 10^2 cfu/mL; biofilm decrease (E. coli CFT073 biofilm; antibiotic alone, stabilizing at 8-16 μg/mL): 4 log10"
